The conditions of data set [1]: room temperature; cited from earlier work.
Data set [2] can be described thus: Solubility analysis by saturated solution method. The note with it: aqueous phase, 37 °C. The class given is physicochemical. How it is done:
The solubility of solid complex was measured by saturated solution method. […] Subsequently, suspension was filtered and 0.1 mL was diluted to 1 mL with water. […] All measurements were noticed in triplicate (n = 3).

The conditions of data set [3]: in vivo, cited from earlier work.
The conditions of data set [4]: cited from earlier work.
Data set [5] can be described thus: Pharmacokinetic analysis in rats (AND in plasma by HPLC). The note with it: male, Sprague Dawley, in vivo, rat.
Assay in data set [6]: as above
The note with it: in vivo, rat. More on the design: species or system male Sprague Dawley rats. How it is done: The pharmacokinetic analysis was carried out in male Sprague Dawley rats. The animals were kept in light controlled environment (Photoperiod~12 h, 23 ± 1 °C, 50 ± 5% humidity) with access to food and water ad libitum. […] In brief, 120 male rats were indiscriminately divided into 30 groups of 4 animals each similar to blood collection time points. AND and AND equivalent to 100 mg.kg^−1 in AND-2-HyP-β-CYD complex was administered orally by gavages.
The AND in plasma was monitored up to 48 h post oral administration of AND and AND-2-HyP-β-CYD complex. Blood samples were collected in both groups at 0.083, 0.25, 0.5, 1, 2, 4, 8, 16, 24 and 48 h. About 750 μl of blood sample was isolated from the retro-orbital vein into microcentrifuge tubes containing 100 μl of 10 % w/v sodium citrate as anticoagulant. The plasma was extracted from the blood by centrifugation at 5000 rpm for 20 min at 4 °C and stored at -40 °C until analyzed.
To extract the AND from plasma samples, plasma was typically mixed with methanol (1: 3 ratio) and vortexed for 20 min. Post mixing, the homogenate was centrifuged for 20 min at 5000 rpm to extract the proteins. The supernatant was filtered through 0.22 μm membrane filter and 10 μl was injected as specified earlier in to the HPLC system.
Plasma concentration data were analyzed and computed for one-compartmental pharmacokinetic parameters. The following pharmacokinetic parameters were assessed: ke (h), t1/2 (h), Cmax (μg.mL^−1), AUClast (h.μg.mL^−1), AUCinf (h.μg.mL^−1), MRT (h), CLTotal (L.h^−1), Vd (L) and F %.

A short description of data set [7]: Dissolution test (USP apparatus, SIF pH 7.2). The class given is physicochemical. The note with it: SIF pH 7.2, after 2 h. How it is done: Dissolution testing was carried out using USP dissolution rate test apparatus as per the standard protocol with HPLC method as specified earlier. In brief, 100 mg of AND or 100 mg of AND equivalent in AND-2-HyP-β-CYD complex powder was suspended in simulated intestinal fluid (SIF, pH 7.2, 900 mL) and paddle was rotated at 50 rpm. The temperature of SIF was kept at 37 ± 2 °C. At specified time intervals, 2 mL of the SIF was taken and replaced with identical volume.

The nature of data set [8]: Cytotoxicity testing, MTT cell proliferation assay. Format: cell-based. The note with it: African green monkey, Vero E6 cells, concentration not given, read-out: % Cell viability against Vero E6 cells. Here is the method: The cytotoxic effect of AND-2-HyP-β-CYD complex on the property of Vero E6 cells was evaluated by using MTT dye [3-(4,5-dimethylthiazol-2-yl)-2,5-diphenyltetrazolium bromide] assay technique. In brief, 1 × 10^4 Vero E6 cells were incubated for 24 h in serum DMEM (Dulbecco's Modified Eagle Medium) of about 200-μl in a 96 wells microtiter plate. Subsequently, Vero E6 cells were incubated for 24 h as well as 72 h with 10 μg.mL^−1 or 100-μg.mL^−1 of AND-2-HyP-β-CYD complex. On the other hand, remedisivir was taken as standard in identical concentration range. MTT dye stock solution (0.5 mg.mL^−1) was incorporated to each well of the microtiter plate post completion of incubation time. The plate was further incubated in 5% CO2 incubator at 37 °C for 4 h. The formazon crystals liberated after cell lysis, were suspended in 100 μL of DMSO (Dimethyl sulfoxide) in the last step. The absorbance was captured using reference wavelength of 630 nm in a ELISA reader at 570 nm.

The next data set relates to SARS-CoV-2. Put plainly: microbe, parasite or virus in culture. The class given is cell-based. The note with it: for % Inhibition of virus replication post infection: concentration not given; for IC50: Severe acute respiratory syndrome coronavirus 2, Vero C1008, Vero E6 cells infected with SARS-CoV-2, MOI 0.01, qRT-PCR after 48 h. On the technique in general: Real-time PCR tracks product formation cycle by cycle.

The mark [9] stands for this setting: male, Sprague Dawley, oral, 100 mg/kg (AND equivalent).

A word on the Aqueous solubility: it is how much of the substance goes into solution per volume. Broadly, the solubility is the dissolved amount per volume that the medium holds. Lower therefore signals little dissolved substance. In general, Tmax refers to the time at which the peak concentration occurs. Broadly, the log P is the decadic logarithm of the partition coefficient of the neutral form, usually between octanol and water. One may read the AUC(0-inf) as total exposure, with the tail of the curve extrapolated. For orientation: AUC(0-t) means the area under the concentration-time curve up to a stated or last time point. The term MRT denotes a mean duration of stay, worked out from the concentration-time curve. Usually Vd stands for a proportionality between amount in the body and measured concentration, not a real space. A high value points to wide distribution into tissue. As a reminder, the half-life is the time needed for the level to fall by half in the phase considered. One may read the bioavailability as the share of a dose that reaches the circulation, judged against a reference dose that is usually intravenous. By viability is commonly meant a per cent measure of how many cells are alive, often set against a control. The term IC50 denotes the concentration at which inhibition is half-maximal.

≈ marks a conversion by molar mass, not a printed value. Where two headings read alike, the source gives them in different places.

On to `CC(O)COC[C@H]1O[C@@H]2O[C@H]3[C@H](O)[C@@H](O)[C@@H](O[C@H]4[C@H](O)[C@@H](O)[C@@H](O[C@H]5[C@H](O)[C@@H](O)[C@@H](O[C@H]6[C@H](O)[C@@H](O)[C@@H](O[C@H]7[C@H](O)[C@@H](O)[C@@H](O[C@H]8[C@H](O)[C@@H](O)[C@@H](O[C@H]1[C@H](O)[C@H]2O)O[C@@H]8COCC(C)O)O[C@@H]7COCC(C)O)O[C@@H]6COCC(C)O)O[C@@H]5COCC(C)O)O[C@@H]4COCC(C)O)O[C@@H]3COCC(C)O` (stereo partly drawn) [2-HyP-β-CYD, 2-Hydroxypropyl-β-cyclodextrin], for which the Aqueous solubility in data set [1] is above 500000 µg/mL.

`C=C1CC[C@@H]2[C@](C)(CO)[C@H](O)CC[C@@]2(C)[C@@H]1C/C=C1/C(=O)OC[C@H]1O` [AND, Andrographolide]: the solubility at 24 h in [2] was 6.39 ± 0.47 µg/mL (≈ 18.2 µM). Moreover, in data set [3] (iv), the “Half-life (t1/2)” value is on record as 1.86 ± 0.21 h. In addition, in data set [3] (po), the Absolute oral bioavailability was 9.27 ± 1.69%, the Cmax is on record as 0.73 ± 0.17 μM.L^−1, the “Half-life (t1/2)” value is listed as 3.30 ± 0.35 h and the Tmax is given as 0.42 ± 0.14 h. Further, the “log P” value in data set [4] is 2.632 ± 0.135. Moreover, in data set [5] (iv, 10 mg/kg), the AUC(0-inf) stood at 891 ± 180 µg·h/mL, the AUC(0-t) worked out at 801 ± 181 µg·h/mL, the MRT was determined as 1.11 ± 0.04 h and the Vd stood at 0.013 ± 0.003 L. In data set [5] (iv, 10 mg/kg), this molecule had a half-life of 0.859 ± 0.031 h. In addition, the clearance in [5] (iv, i.v., 10 mg/kg, read-out: CLTotal (converted)) is 0.183 mL/min. Also, the Tmax in data set [5] (oral, 100 mg.kg^−1) turned out to be 2 h. For the same molecule, in data set [6] (male, Sprague Dawley, 100 mg.kg^−1, oral 100 mg/kg vs i.v. 10 mg/kg, read-out: F (%), bioavailability), the bioavailability was found to be 15.9 ± 3.84%. In [6] (setting [9]), the AUC(0-inf) was found to be 1850 ± 306 µg·h/mL, the AUC(0-t) was found to be 1220 ± 143 µg·h/mL, the Cmax is 240 ± 75.4 µg/mL and the half-life was 5.92 ± 0.21 h. The MRT in data set [6] (po, 100 mg/kg) is recorded as 1.49 ± 0.0.085 h. Besides, in [7], the “% release” value came out at 27.89 ± 1.32%.

As to `CCC(CC)COC(=O)[C@H](C)N[P@](=O)(OC[C@H]1O[C@@](C#N)(c2ccc3c(N)ncnn23)[C@H](O)[C@@H]1O)Oc1ccccc1` [Remdesivir], the viability at 24 h in data set [8] (24 h) was determined as 99.2%. Moreover, the viability at 48 h in [8] (48 h) was 94.4%. Also, the “% Inhibition of virus replication post infection” value is listed as 72.26% in the data set with SARS-CoV-2 (24 h, E gene); 77.61% in the data set with SARS-CoV-2 (24 h, N gene); 99.64% with SARS-CoV-2 (48 h, E gene); 99.76% in the data set on SARS-CoV-2 (48 h, N gene). For the same molecule, the IC50 in the data set on SARS-CoV-2 (read-out: IC50 (E gene)) was found to be 0.09 µg/mL (≈ 0.149 µM); with SARS-CoV-2 (read-out: IC50 (N gene)), 0.06 µg/mL (≈ 0.0996 µM).

The values are drawn from publication PMC8351079, “Molecular encapsulation of andrographolide in 2-hydroxypropyl-β-cyclodextrin cavity: synthesis, characterization, pharmacokinetic and in vitro antiviral activity analysis against SARS-CoV-2” (Heliyon, 2021).
